This is an account of results in paper PMC6735221, “A phase Ib dose-finding, pharmacokinetic study of the focal adhesion kinase inhibitor GSK2256098 and trametinib in patients with advanced solid tumours” (British Journal of Cancer, 2019).

Where two headings read alike, the source gives them in different places.

For data set [1] the following is noted: human, in vivo.
Protocol: (§2) AEs were assessed throughout the study using the National Cancer Institute Common Terminology Criteria for Adverse Events v4.0 guidelines.[13]
(§3) Haematology and clinical chemistry laboratory tests were performed at baseline, Days 1, 8, 15, 22, 29, and every 4 weeks thereafter. Electrocardiograms were performed at baseline, Days 1, 15, 22, and then every 8 weeks from Day 1.
The conditions of data set [2]: human, in vivo. This is another data set of the same source.
Protocol: Blood samples for pharmacokinetic analysis were collected prior to morning dosing of GSK2256098 on Day 15, and at 1, 1.5, 2, 4, 6, 8 h after the morning dose of GSK2256098. Trametinib was administered immediately after the 1.5-hour pharmacokinetic sample was collected.
For PK analysis of trametinib, blood samples were taken via an indwelling cannula (or by direct venepuncture), collected into a di-potassium ethylenediaminetetraacetic acid (K2-EDTA) tube and immediately placed on water ice. Blood samples stored on wet ice were centrifuged within 1 h of collection at approximately 1500 g for 10 min at 4 °C. Supernatant plasma was transferred to a 3.6 mL Nunc tube and stored at 20 °C before shipment. Samples were shipped frozen on dry ice at agreed timepoints throughout the study to GSK Pharmaceuticals, Upper Merion, PA, USA, for analysis.
Plasma samples were analysed for trametinib using the validated analytical method based on liquid-liquid extraction, followed by high-performance liquid chromatography mass spectrometry (HPLC-MS/MS) analysis using a TurboIonSpray interface and multiple reaction monitoring. The lower limit of quantification (LLQ) for trametinib was 0.25 ng/mL using a 50-mL aliquot of human plasma with a higher limit of quantification (HLQ) of 250 ng/mL. Blood samples were analysed for GSK2256098 using a validated analytical method based on acetonitrile extraction from dried blood spots on the Whatman FTA DBS card, followed by HPLC/MS/MS analysis using a TurboIonSpray interface and multiple reaction monitoring. The LLQ for GSK2256098 was 10 ng/mL using a 3-mm diameter.
GSK2256098 whole-blood and dry blood spot concentration-time data as well as trametinib plasma concentration-time data were analysed by standard noncompartmental methods using Phoenix WinNonlin version 6.3. Calculations of all Pharmacokinetic parameters were based on doses of GSK2256098 and trametinib administered and actual sampling times from the respective dosing.
Details of data set [3]: method as in PMID 22805291. Conditions: Trametinib 2.0 mg monotherapy (n = 13), plasma; cited from earlier work.
Data set [4] in a line: GSK2256098 pharmacokinetics, whole blood, Day 15. Format: in vivo, human. Conditions: for Cmax: read-out: Cmax, Geometric mean (%CV); for Tmax: read-out: tmax, Median (range). The protocol: (§1) Approximately 15 μL blood was then transferred from the “end-to-end” EDTA capillary tube onto the Whatman FTA DBS card.
The nature of data set [5]: GSK2256098 pharmacokinetics, dry blood spot, Day 15. Format: in vivo. The conditions noted are these: human, oral; for Cmax: read-out: Cmax, Geometric mean (%CV); for Tmax: read-out: tmax, Median (range). As to the method: as §1
Data set [6] has as its system Merlin-negative (encoded by NF-2) mesothelioma cells. Further details: method as in doi:10.1016/S0959-8049(12)72185-8. Conditions: preclinical studies; cited from earlier work.
Data set [7] deals with human carboxylesterases (eg, hCES1b, hCES1c, and hCES2). Set-up: method as in GSK data on file. The conditions noted are these: in vitro investigation; ref GSK data on file; cited from earlier work.
For another data set, the system named is mesothelioma. Further details: method as in PMID 27733373. Conditions: GSK2256098 monotherapy, phase I; cited from earlier work.
Data set [8] in a line: Adverse events (CTCAE v4.0) in patients. Conditions: diarrhoea, lower respiratory tract infection, nausea, vomiting.
Protocol: as §2, §3
Setting [9] is: human, oral, GSK2256098 250 mg (n = 10) with trametinib, whole blood, Day 15.
Setting [10] is: human, oral, GSK2256098 500 mg (n = 21) with trametinib, whole blood, Day 15.
Setting [11] is: GSK2256098 250 mg (n = 6) with trametinib.
The mark [12] stands for this setting: GSK2256098 500 mg (n = 10) with trametinib.

For the compound `CC(=O)Nc1cccc(-n2c(=O)n(C3CC3)c(=O)c3c(Nc4ccc(I)cc4F)n(C)c(=O)c(C)c32)c1` [trametinib], the MTD in combination (high GSK2256098/low trametinib MTD, trametinib part) was 0.375 mg QD. The MTD in combination (low GSK2256098/high trametinib MTD, trametinib part) worked out at 0.5 mg QD. In addition, the “subjects with an SAE that could be attributed to trametinib” value in data set [1] came out at 15%. Also, in data set [2], the “Trametinib exposure (Cmax and AUC) with GSK2256098 versus trametinib monotherapy” value is reported as 2- to 4 fold; the “median time to Cmax (tmax)” value is 1.5 to 2.5 h; the “tmax of trametinib with GSK2256098 co-administration” value is “slightly delayed”. For the same compound, in data set [3], the “Cmax, Geometric mean (%CV)” value was 22.2 (28) ng/mL and the “tmax, Median (range)” value was 1.75 (1.0–3.0) h.

Consider `CONC(=O)c1ccccc1Nc1cc(Nc2cc(C)nn2C(C)C)ncc1Cl` [GSK2256098], for which the exposure (AUC) – broadly, concentration integrated over time – in [4] (human, oral, GSK2256098 250 mg (n = 10) with trametinib, whole blood, Day 15, read-out: AUC(0–τ), Geometric mean (%CV)) stood at 5470 ng·h/mL; in [5] (GSK2256098 250 mg (n = 6) with trametinib, read-out: AUC(0–τ), Geometric mean (%CV)) it was 4980 ng·h/mL. Also, the Cmax (as a rule, the maximum level reached in the sampled fluid or tissue) was 1400 ng/mL in data set [4] (setting [9]), 2450 ng/mL in data set [4] (setting [10]), 1230 ng/mL in data set [5] (setting [11]) and 2830 ng/mL in [5] (setting [12]). Further, the Tmax – broadly, the time at which the peak concentration occurs – turned out to be 2 h in [4] (setting [9]), 2 h in data set [4] (setting [10]), 2.8 h in data set [5] (setting [11]) and 2 h in [5] (setting [12]). Moreover, the “median time to Cmax (tmax)” value in [4] (post-dose, across dose groups, with trametinib) is recorded as approximately 2 h. Further, in data set [4] (versus previous monotherapy study), the “exposure of GSK2256098 when co-administered with trametinib” value is “not altered”. Besides, the MTD in combination reads like this: (high GSK2256098/low trametinib MTD, GSK2256098 part) 500 mg BID; (low GSK2256098/high trametinib MTD, GSK2256098 part) 250 mg BID. Also, in [6], the “activity in vitro in Merlin-negative versus Merlin-positive mesothelioma cells” value is recorded as “at least 20 times”. For the same compound, in data set [7], the “effect on deacetylation of trametinib by human carboxylesterases” value is reported as “inhibits deacetylation of trametinib”. In the data set with mesothelioma, the “PFS of Merlin-negative versus Merlin-positive mesothelioma patients” value is “nearly twice”. Also, the “relation of the most common serious AEs to GSK2256098” value in data set [8] was “none of these were considered related to GSK2256098”.
